In general, IC50 refers to the concentration needed to halve the response being measured.

In series [1] the test system is tumor cells such as the HT-29 colon carcinoma or LX-1 lung tumor. As to the kind of experiment: Cytotoxicity, microculture tetrazolium assay (MTT). The series is classed as cell-based. The following applies: 48 hours incubation, T/C of 50%, cell line not given. As to the method:
Cytotoxicity was measured using a standard methodology for adherent cell lines, such as the microculture tetrazolium assay (MTT). Details of this assay have been published (Alley, M. C. et al., Cancer Research 48: 589-601, 1988). Exponentially growing cultures of tumor cells such as the HT-29 colon carcinoma or LX-1 lung tumor were used to make microtiter plate cultures. Cells were seeded at 5000-20,000 cells per well in 96-well plates (in […] of media), and grown overnight at 37° C. Test compounds were added, in 10-fold dilutions varying from 10^−4 M to 10^−10 M. Cells were then incubated for 48 hours. To determine the number of viable cells in each well, the MTT dye was added ([…] of a 3 mg/mL solution of 3-(4,5-dimethylthiazol-2-yl)-2,5-diphenyltetrazolium bromide in saline). This mixture was incubated at 37° C. for 5 hours, and then […] of 25% SDS, pH 2, was added to each well. After an overnight incubation, the absorbance of each well at 550 nm was read using an ELISA reader. The values for the mean+/−SD of data from replicated wells were calculated, using the formula % T/C (% viable cells treated/control). The concentration of test compound which gives a T/C of 50% growth inhibition was designated as the IC50.

For series [2], the system named is National Cancer Institute's P388 lymphocytic leukemia (PS system) cell line. To be noted: cited from earlier work.
The conditions of series [3]: synthetic Dolastatin 15; cited from earlier work.

Some results are limits rather than exact numbers.

In series [1], `CON(C)C(=O)c1ccccc1NC(=O)[C@@H]1CCCN1C(=O)[C@H](C(C)C)N(C)C(=O)C(NC(=O)[C@H](C(C)C)N(C)C)C(C)C` (stereo partly drawn) [Compound I-60, (2)-(Me2Val-Val-MeVal-Pro-NH)—C6H4—CON(CH3)(OCH3)] showed an IC50 of 400 nM. With `CC(C)C(NC(=O)[C@H](C(C)C)N(C)C)C(=O)N(C)[C@H](C(=O)N1CCC[C@H]1C(=O)NC1CCCC1C(=O)NCc1ccccc1)C(C)C` (stereo partly drawn) [VII-2, Me2-Val-Val-MeVal-Pro-[cis-2-aminocyclopentanecarboxylic acid]-NHBn], the IC50 in series [1] was more than 1000 nM.

Take `CNC(=O)c1cccc(C2CCCC2)c1NC(=O)[C@@H]1CCCN1C(=O)[C@H](C(C)C)N(C)C(=O)[C@@H](NC(=O)[C@H](C(C)C)N(C)C)C(C)C` [Compound I-7, 2-(Me2ValVal-MeVal-ProNH)-3-cyclopentanyl-C6H3C(O)NHCH3]: half-maximal inhibition in series [1] (IC50) was put at 400 nM. As to “2-(Me2Val-Val-MeVal-Pro-NH)—C6H4—CO—CH3 [IV-1]”, the IC50 in series [1] is more than 1000 nM. Take Dolastatin 15: the “inhibition of growth of P388 cell line” value in series [2] was “markedly inhibits the growth”. In addition, the “solubility in aqueous systems” value in series [3] is given as “poor solubility”.

The values above are taken from patent US20010018422A1, “Dolastatin 15 derivatives” (BASF Aktiengesellschaft, priority 1999, published 2001).
